Experiment: Maxima of UV-A and UV-B absorption of quinoxaline derivatives in 2-propanol
Assay type: physicochemical
Details: 1 mg of substance per 100 ml of solvent; for UV-A (400 320 nm) Max. abs.: absorbance at UV-A maximum; for UV-A (400 320 nm) λ [nm]: wavelength of UV-A maximum; for UV-B (280 320 nm) Max. abs.: absorbance at UV-B maximum; for UV-B (280 320 nm) λ [nm]: wavelength of UV-B maximum
Protocol: The measurement was carried out in 2-propanol at a concentration of 1 mg of substance per 100 ml of solvent.

Structure (SMILES) | UV-A (400 320 nm) Max. abs. | UV-A (400 320 nm) λ [nm] | UV-B (280 320 nm) Max. abs. | UV-B (280 320 nm) λ [nm]
c1ccc2nc(Oc3cnc4ccccc4n3)cnc2c1 | 0.2587 | 320.0 nm | – | –
Cc1ccc(/C=C/c2nc3ccccc3nc2/C=C/c2ccc(C)cc2)cc1 | – | – | 0.3327 | 316.0 nm
O=C(OC/C=C/c1ccccc1)c1ccccc1Nc1cnc2ccccc2n1 | 0.469 | 386.3 nm | – | –
O=C(/C=C/C=C/c1ccccc1)c1cnc2ccccc2n1 | 1.0497 | 365.0 nm | 0.6584 | 302.0 nm
Nc1nc2ccccc2nc1NC(=O)c1cc(C(F)(F)F)cc(C(F)(F)F)c1 | 0.4130 | 354.0 nm | – | –
Brc1ccc2nc3nc4ccccc4nc3n2c1 | 0.4113 | 354 nm | – | –
O=c1[nH]c2ccccc2nc1/C=C/C=C/c1ccccc1 | – | – | 0.6004 | 281.5 nm
Nc1nc2ccccc2nc1Cl | 0.427 | 353.4 nm | – | –
CCC(=O)c1cnc2ccccc2n1 | – | – | 0.3236 | 307.0 nm
O=C(c1ccccc1)c1cnc2ccccc2n1 | – | – | 0.330 | 300.0 nm
O=C(/C=C/c1ccccc1)c1cnc2ccccc2n1 | 0.1731 | 329.0 nm | – | –
CC(C)OC(=O)c1ccc(Nc2cnc3ccccc3n2)cc1 | 0.555 | 374.3 nm | 1.262 | 306.7 nm
CC(=O)c1ccn2c(c1)nc1nc3ccccc3nc12 | 0.533 | 364.8 nm | – | –
O=C(O)c1ccc(NCc2cnc3ccccc3n2)cc1 | – | – | 0.837 | 302.9 nm
O=c1[nH]c2ccccc2nc1-c1ccccc1 | 0.360 | 365.0 nm | 0.373 | 305.0 nm
Brc1cnc2ccccc2n1 | 0.4424 | 321.0 nm | – | –
O=C(/C=C/c1ccc2c(c1)OCO2)c1cnc2ccccc2n1 | 0.5101 | 381.0 nm | 0.4556 | 305.0 nm
CN(C)c1cnc2ccccc2n1 | 0.413 | 378.0 nm | – | –
O=C(O)c1ccc(Nc2cnc3ccccc3n2)c(O)c1 | 0.5594 | 381.0 nm | – | –
CCOC(=O)c1nc2ccccc2nc1Nc1ccc(C(=O)O)cc1 | – | – | 1.270 | 311.5 nm

Reference: patent US20030207886A1, “Preparation containing quinoxaline derivatives” (priority 2000, published 2003)
